Source: patent publication US7625929B2, “Oxophenyl-cyclohexyl-propanolamine derivatives, production and use thereof in therapeutics” (sanofi-aventis, priority 2002, dated 2009)

Compound	melting point [°C]
CS(=O)(=O)c1cc(OC[C@@H](O)CN[C@H]2CC[C@H](c3ccc(C(=O)N4CCC5(CCCc6ccccc65)CC4)cc3)CC2)ccc1O [compound No. 17, trans-4-{[(2S)-3-({4-[4-(3,4-dihydro-1′H-spiro[naphthalene-1,4′-piperidin]-1′-ylcarbonyl)phenyl]cyclohexyl}amino)-2-hydroxypropyl]-oxy}-2-(methylsulfonyl)phenol]	125
CS(=O)(=O)c1cc(OC[C@@H](O)CN[C@H]2CC[C@H](c3ccc(C(=O)N4CCC5(CCc6ccccc65)CC4)cc3)CC2)ccc1O [compound No. 15, trans-4-{[(2S)-3-({4-[4-(2,3-dihydro-1′H-spiro[indene-1,4′-piperidin]-1′-ylcarbonyl)phenyl]-cyclohexyl}amino)-2-hydroxypropyl]oxy}-2-(methylsulfonyl)phenol]	125
CS(=O)(=O)c1cc(OC[C@@H](O)CN[C@H]2CC[C@H](c3ccc(C(=O)N4CCC5(CC4)Cc4ccccc4C5)cc3)CC2)ccc1O [compound No. 13, trans-4-{[(2S)-3-({4-[4-(1,3-dihydro-1′H-spiro[indene-2,4′-piperidin]-1′-ylcarbonyl)phenyl]-cyclohexyl}amino)-2-hydroxypropyl]oxy}-2-(methylsulfonyl)phenol]	125
